Source: the NIST ThermoML archive (doi:10.1016/j.fluid.2007.07.066)

Test: refractive index (Na D-line) (dimensionless); mn = molality of the nth substance listed, in mol/kg
Details: 298.15 K, 101 kPa, Liquid, Standard Abbe refractometry

O=P([O-])([O-])O.[Na+].[Na+] [disodium hydrogen phosphate] + O
Details | refractive index
m1 = 0.0049 | 1.3328
m1 = 0.0104 | 1.3329
m1 = 0.0154 | 1.3331
m1 = 0.0211 | 1.3333
m1 = 0.0413 | 1.334
m1 = 0.0712 | 1.3348
m1 = 0.1066 | 1.3357
m1 = 0.1437 | 1.3367
m1 = 0.1927 | 1.3379
m1 = 0.2475 | 1.3392
m1 = 0.3697 | 1.3421
m1 = 0.4438 | 1.3438
m1 = 0.5295 | 1.3458
m1 = 0.6125 | 1.3476
m1 = 0.6768 | 1.349
m1 = 0.7479 | 1.3505
m1 = 0.8346 | 1.3524
m1 = 0.9695 | 1.3551
